Experimental data taken from patent US12435059B2, “AMP-activated protein kinase inhibitors and methods of making and using the same” (The Regents of the University of Colorado, priority 2019, dated 2025).

Key:
Assay in all cases: biochemical
Type in all cases: binding
[1] = molecular target: 468 kinases (Homo sapiens, UniProt O14578); conditions: CIT; read-out: % Inhibition @ 100 nM
[2] = molecular target: 468 kinases (Homo sapiens, UniProt O14730); conditions: RIOK3; read-out: % Inhibition @ 100 nM
[3] = molecular target: 468 kinases (Homo sapiens, UniProt O14936); conditions: CASK; read-out: % Inhibition @ 100 nM
[4] = molecular target: 468 kinases (Homo sapiens, UniProt O43293); conditions: DAPK3; read-out: % Inhibition @ 100 nM
[5] = molecular target: 468 kinases (Homo sapiens, UniProt O60285); conditions: ARK5; read-out: % Inhibition @ 100 nM
[6] = molecular target: 468 kinases (Homo sapiens, UniProt O75747); conditions: PIK3C2G; read-out: % Inhibition @ 100 nM
[7] = molecular target: 468 kinases (Homo sapiens, UniProt O95819); conditions: MAP4K4; read-out: % Inhibition @ 100 nM
[8] = molecular target: 468 kinases (Homo sapiens, UniProt P00533, T790M); conditions: EGFR(T790M); read-out: % Inhibition @ 100 nM
[9] = molecular target: 468 kinases (Homo sapiens, UniProt P08631); conditions: HCK; read-out: % Inhibition @ 100 nM
[10] = molecular target: 468 kinases (Homo sapiens, UniProt P0C264); conditions: SgK110; read-out: % Inhibition @ 100 nM
[11] = molecular target: 468 kinases (Homo sapiens, UniProt P11362); conditions: FGFR1; read-out: % Inhibition @ 100 nM
[12] = molecular target: 468 kinases (Homo sapiens, UniProt P30530); conditions: AXL; read-out: % Inhibition @ 100 nM
[13] = molecular target: 468 kinases (Homo sapiens, UniProt P42679); conditions: CTK; read-out: % Inhibition @ 100 nM
[14] = molecular target: 468 kinases (Homo sapiens, UniProt P48736); conditions: PIK3CG; read-out: % Inhibition @ 100 nM
[15] = molecular target: 468 kinases (Homo sapiens, UniProt P52564); conditions: MEK6; read-out: % Inhibition @ 100 nM
[16] = molecular target: 468 kinases (Homo sapiens, UniProt P53671); conditions: LIMK2; read-out: % Inhibition @ 100 nM
[17] = molecular target: 468 kinases (Homo sapiens, UniProt P68400); conditions: CSNK2A1; read-out: % Inhibition @ 100 nM
[18] = molecular target: 468 kinases (Homo sapiens, UniProt Q07912); conditions: TNK2; read-out: % Inhibition @ 100 nM
[19] = molecular target: 468 kinases (Homo sapiens, UniProt Q13153); conditions: PAK1; read-out: % Inhibition @ 100 nM
[20] = molecular target: 468 kinases (Homo sapiens, UniProt Q13233); conditions: MAP3K1; read-out: % Inhibition @ 100 nM
[21] = molecular target: 468 kinases (Homo sapiens, UniProt Q15139); conditions: PRKD1; read-out: % Inhibition @ 100 nM
[22] = molecular target: 468 kinases (Homo sapiens, UniProt Q15208); conditions: NDR1; read-out: % Inhibition @ 100 nM
[23] = molecular target: 468 kinases (Homo sapiens, UniProt Q16566); conditions: CAMK4; read-out: % Inhibition @ 100 nM
[24] = molecular target: 468 kinases (Homo sapiens, UniProt Q16659); conditions: ERK3; read-out: % Inhibition @ 100 nM
[25] = molecular target: 468 kinases (Homo sapiens, UniProt Q32MK0); conditions: MLCK; read-out: % Inhibition @ 100 nM
[26] = molecular target: 468 kinases (Homo sapiens, UniProt Q86V86); conditions: PIM3; read-out: % Inhibition @ 100 nM
[27] = molecular target: 468 kinases (Homo sapiens, UniProt Q8NE63); conditions: HIPK4; read-out: % Inhibition @ 100 nM
[28] = molecular target: 468 kinases (Homo sapiens, UniProt Q8TBX8); conditions: PIP5K2C; read-out: % Inhibition @ 100 nM
[29] = molecular target: 468 kinases (Homo sapiens, UniProt Q8TD08); conditions: ERK8; read-out: % Inhibition @ 100 nM
[30] = molecular target: 468 kinases (Homo sapiens, UniProt Q96J92); conditions: WNK4; read-out: % Inhibition @ 100 nM
[31] = molecular target: 468 kinases (Homo sapiens, UniProt Q9H3Y6); conditions: SRMS; read-out: % Inhibition @ 100 nM
[32] = molecular target: 468 kinases (Homo sapiens, UniProt Q9HC98); conditions: NEK6; read-out: % Inhibition @ 100 nM
[33] = molecular target: 468 kinases (Homo sapiens, UniProt Q9NQU5); conditions: PAK6; read-out: % Inhibition @ 100 nM

| SMILES | inhibition at 0.1 µM [1] [%] | inhibition at 0.1 µM [2] [%] | inhibition at 0.1 µM [3] [%] | inhibition at 0.1 µM [4] [%] | inhibition at 0.1 µM [5] [%] | inhibition at 0.1 µM [6] [%] | inhibition at 0.1 µM [7] [%] | inhibition at 0.1 µM [8] [%] | inhibition at 0.1 µM [9] [%] | inhibition at 0.1 µM [10] [%] | inhibition at 0.1 µM [11] [%] | inhibition at 0.1 µM [12] [%] | inhibition at 0.1 µM [13] [%] | inhibition at 0.1 µM [14] [%] | inhibition at 0.1 µM [15] [%] | inhibition at 0.1 µM [16] [%] | inhibition at 0.1 µM [17] [%] | inhibition at 0.1 µM [18] [%] | inhibition at 0.1 µM [19] [%] | inhibition at 0.1 µM [20] [%] | other results |
| --- | --- | --- | --- | --- | --- | --- | --- | --- | --- | --- | --- | --- | --- | --- | --- | --- | --- | --- | --- | --- | --- |
| CCN(CC)CCNC(=O)c1c(C)[nH]c(/C=C2\C(=O)Nc3ccc(CCC(N)=O)cc32)c1C [Compound No. 16, (Z)-5-((5-(3-Amino-3-oxopropyl)-2-oxoindolin-3-ylidene)methyl)-N-(2-(diethylamino)ethyl)-2,4-dimethyl-1H-pyrrole-3-carboxamide] | 0 | 100 | 34 | 21 | 71 | 4 | 46 | 30 | 0 | 0 | 14 | 92.5 | 16 | 22 | 25 | 17 | 78 | 20 | 0 | 36 | inhibition at 0.1 µM [21]: 0%; inhibition at 0.1 µM [22]: 20%; inhibition at 0.1 µM [23]: 0%; inhibition at 0.1 µM [24]: 9%; inhibition at 0.1 µM [25]: 0%; inhibition at 0.1 µM [26]: 0%; inhibition at 0.1 µM [27]: 57%; inhibition at 0.1 µM [28]: 1%; inhibition at 0.1 µM [29]: 25%; inhibition at 0.1 µM [30]: 55%; inhibition at 0.1 µM [31]: 27%; inhibition at 0.1 µM [32]: 0%; inhibition at 0.1 µM [33]: 0% |
| CCN(CC)CCNC(=O)c1c(C)[nH]c(/C=C2\C(=O)Nc3ccc(CCO)cc32)c1C [Compound No. 10, (Z)—N-(2-(Diethylamino)ethyl)-5-((5-(2-hydroxyethyl)-2-oxoindolin-3-ylidene)methyl)-2,4-dimethyl-1H-pyrrole-3-carboxamide] | 4 | 93.9 | 19 | 5 | 84 | 19 | 47 | 0 | 2 | 58 | 44 | 88 | 22 | 0 | 11 | 0 | 0 | 0 | 0 | 0 | inhibition at 0.1 µM [21]: 0%; inhibition at 0.1 µM [22]: 34%; inhibition at 0.1 µM [23]: 0%; inhibition at 0.1 µM [24]: 0%; inhibition at 0.1 µM [25]: 0%; inhibition at 0.1 µM [26]: 8%; inhibition at 0.1 µM [27]: 28%; inhibition at 0.1 µM [28]: 0%; inhibition at 0.1 µM [29]: 15%; inhibition at 0.1 µM [30]: 0%; inhibition at 0.1 µM [31]: 13%; inhibition at 0.1 µM [32]: 19%; inhibition at 0.1 µM [33]: 0% |
